Two compounds from patent publication US9649282B2, “Diversion- and/or abuse-resistant compositions and methods for making the same” (Invincible Biotechnology, LLC, priority 2010, dated 2017) can be followed below.

The data set in a line: Abuse resistance through nasal inhalation: aminophylline in blood serum after intranasal administration to mice (HPLC). The class given is in vivo, male mice (CBA C50 Black F1 line). To be noted: 10 μL of solution, blood from retro-orbital sinus about 3 to 5 minutes after administration, pool of three mice. As to the method:
10 μL of each experimental solution was administered to a corresponding pool of three mice. About 3 to 5 minutes after administration, blood samples were drawn from the retro-orbital sinuses (sinus retroorbitalis) of the mice, combined and centrifuged for 10 minutes at 3000 rpm. The collected serum was then deproteinized with 0.3 M trichloroacetic acid at a serum to acid ratio of about 0.2 ml to 1.0 ml. To complete the precipitation of proteins, the samples were maintained in a thermostat at 20° C. for about 20 minutes and then filtered through a 0.45 micron acetate cellulose filter. The filtrates were analyzed for aminophylline concentration by injecting 20 μL samples into an HPLC, Schimadzu LC-20AD with photodiode array detector (PDA) and Phenomenex Luna 5μ C18, […] column. Acetonitrile in 0.1M phosphoric acid was used as a Mobile phase with linear gradient of acetonitrile of 1-50% vol., pressure 6.3 Mpa, flow rate 0.5 ml/min, and detector wavelength of about 272 nm.
The chromatograms of serums from Controls 1 and 2 with aminophylline concentration of 4% by weight and 24% by weight are shown in FIGS. 9 and 10, respectively. Similar chromatograms were prepared for all of the samples. The areas of the aminophylline peaks that are proportional to its concentration in the blood taken from the retro-orbital sinus, are presented in Table 6 below: […]

In the case of `Cn1c(=O)c2[nH]cnc2n(C)c1=O` [Control-1, aminophylline], the “Aminophylline Concentration in Blood Serum” value is 19.91 µg/mL.

Take `Cn1c(=O)c2[nH]cnc2n(C)c1=O` [Control-2, aminophylline]: the “Aminophylline Concentration in Blood Serum” value worked out at 20.09 µg/mL.
